Results published in publication PMC7400207, “It Takes Two: Dimerization Is Essential for the Broad-Spectrum Predatory and Defensive Activities of the Venom Peptide Mp1a from the Jack Jumper Ant Myrmecia pilosula” (Biomedicines, 2020).
Marks after values point to notes of the source that are not given here. Where no end group is shown, it is not given here.

How the values were obtained:
trypanosomes = conditions: cited from earlier work
Excerpt: However, the anthelmintic activity of the dimers was only observed at concentrations 10-fold higher than required for neuronal cell activation, cytotoxicity and hemolysis.

Drosophila melanogaster [1] = conditions: same assay; cited from earlier work
F11 cells = assay: FLIPR calcium assay, activation of F11 cells; type: cell-based; conditions: F11 cells, FLIPR
Method: F11 cells were cultured as previously described. Cells were maintained on Ham’s F12 media supplemented with 10% fetal bovine serum (FBS), 100 µM hypoxanthine, 0.4 µM aminopterin, and 16 µM thymidine (Hybri-MaxTM, Sigma Aldrich, North Ryde, Australia). Then, 384-well imaging plates (Corning) were seeded 48 h prior to imaging resulting in 90–95% confluence at imaging. Cells were incubated for 30 min with the Calcium 4 assay component A according to the manufacturer’s instructions (Molecular Devices, Sunnyvale, CA, USA) in physiological salt solution (PSS; composition in mM: 140 NaCl, 11.5 D-glucose, 5.9 KCl, 1.4 MgCl2, 1.2 NaH2PO4, 5 NaHCO3, 1.8 CaCl2, 10 HEPES) at 37°C. Fluorescence was measured using a fluorescent imaging plate reader (FLIPR^TETRA) equipped with a CCD camera (Excitation: 470–490 nm, Emission: […]) (Molecular Devices, Sunnyvale, CA, USA). Signals were read every second for 10 s before, and 300 s after the addition of peptides in PSS supplemented with 0.1% bovine serum albumin. All data are the mean ± SEM of assays performed in triplicate. Maximum–minimum fluorescence in the 300 s period after peptide addition was recorded as the response. Concentration–response data were fitted with a four-parameter Hill equation (variable slope) using GraphPad Prism 8 to obtain effective concentration (EC50) values.

Drosophila melanogaster [2] = assay: Drosophila melanogaster microinjection assay; type: in vivo; conditions: intrathoracic injection, 50 nL, adult female flies, lethality at 24 h; three dose-response curves, ± SEM
Method: The insecticidal activity of the chemically synthesized 1a and analogues thereof were determined by injection into adult female D. melanogaster aged 3–5 days (mass 0.7–0.9 mg) as described previously. Analogues were dissolved in water and intrathoracically injected using pulled glass capillaries at a volume of 50 nL per fruit fly, and the results were compared against an equivalent injection volume of water alone. All injections were performed in the morning or early afternoon. At 24 h post-injection flies were monitored for lethality. Dose–response curves were constructed using 7–10 doses per analogue (each dose tested in eight flies) and three separate dose–response curves were constructed for each analogue. The lethality in the groups receiving the analogues were adjusted using the respective control group lethality using the Henderson-Tilton formula [20]. The median lethal dose (LD50) of each analogue was calculated based on the three dose–response curves using GraphPad Prism 8.0 [21]. One-way ANOVA followed by Dunnett’s multiple comparison test were used to compare LD50 values.

[3] = tested on: mouse dorsal root ganglion (DRG) cells; assay: Calcium imaging of mammalian sensory neurons; type: cell-based; conditions: 1 µM peptide, Fluo-4 calcium imaging, neuronal and non-neuronal cells
Method: Calcium imaging of a heterogenous population of mouse dorsal root ganglion (DRG) sensory neurons was performed as previously described. In brief, dorsal root ganglion (DRG) cells isolated from 4–8-week-old male C57BL/6 mice under ethics approval TRI/IMB/093/17 (University of Queensland Animal Ethics Committee, approval date 31/03/2017) were dissociated and then plated in Dulbecco’s modified Eagle’s medium (Gibco, Grand Island, NY, USA) containing 10% fetal bovine serum (FBS; Assaymatrix, Melbourne, Australia) and penicillin/streptomycin (Gibco) on a 96-well poly-D-lysine–coated culture plate (Corning, Lowell, MA, USA), and maintained overnight. Cells were loaded with Fluo-4 AM calcium indicator as per the manufacturer’s instructions (Thermo Fisher Scientific, Grand Island, NY, USA). After loading for 1 h, the dye solution was replaced with assay solution (Hanks’ balanced salt solution and 20 mM HEPES). Fluorescence corresponding to intracellular calcium ([Ca^2+]i) of typically 100–150 DRG cells per experiment was monitored in parallel using a Nikon Ti-E deconvolution inverted microscope, equipped with a Lumencor Spectra LED light source. Images were acquired at a 20× objective at one frame/s (excitation 485 nm; emission 521 nm). For each experiment, baseline fluorescence was monitored for 30 s and then a wash of assay solution was applied.

cupiennin-1a: broadly cytolytic peptide from the wandering spider Cupiennius salei (GFGALFKFLAKKVAKTVAKQAAKQGAKYVVNKQME; ends and bridges not checked; UniProt P83619 1-35, looked up)
Selectivity for trypanosomes over human red blood cells (trypanosomes): > 400 fold

ω-hexatoxin-Hv1a
LD50 (insecticidal potency) (Drosophila melanogaster [1]): 9 pmol/g

CC[C@H](C)[C@H](N)C(=O)N[C@@H](CC(=O)O)C(=O)N[C@@H](Cc1c[nH]c2ccccc12)C(=O)N[C@@H](CCCCN)C(=O)N[C@@H](CCCCN)C(=O)N[C@H](C(=O)N[C@@H](CC(=O)O)C(=O)N[C@@H](Cc1c[nH]c2ccccc12)C(=O)N[C@@H](CCCCN)C(=O)N[C@@H](CCCCN)C(=O)N[C@H](C(=O)N[C@@H](CO)C(=O)N[C@@H](CCCCN)C(=O)N[C@@H](CCCCN)C(=O)N[C@H](C(=O)N[C@H]1CSSC[C@@H](C(=O)N[C@@H](CCCCN)C(=O)N[C@@H](Cc2ccccc2)C(=O)N[C@@H](CC(C)C)C(N)=O)NC(=O)[C@H](C)NC(=O)[C@H](CCCCN)NC(=O)[C@H](CC(C)C)NC(=O)[C@H](CCSC)NC(=O)[C@H](C(C)C)NC(=O)[C@H](CCCCN)NC(=O)[C@@H](NC(=O)[C@@H](NC(=O)[C@H](CCCCN)NC(=O)[C@H](CCCCN)NC(=O)[C@H](CO)NC(=O)[C@@H](NC(=O)[C@H](CCCCN)NC(=O)[C@H](CCCCN)NC(=O)[C@H](Cc2c[nH]c3ccccc23)NC(=O)[C@H](CC(=O)O)NC(=O)[C@@H](NC(=O)[C@H](CCCCN)NC(=O)[C@H](CCCCN)NC(=O)[C@H](Cc2c[nH]c3ccccc23)NC(=O)[C@H](CC(=O)O)NC(=O)[C@@H](N)[C@@H](C)CC)C(C)C)C(C)C)[C@@H](C)O)CSSC[C@@H](C(=O)N[C@@H](CCCCN)C(=O)N[C@@H](Cc2ccccc2)C(=O)N[C@@H](CC(C)C)C(N)=O)NC(=O)[C@H](C)NC(=O)[C@H](CCCCN)NC(=O)[C@H](CC(C)C)NC(=O)[C@H](CCSC)NC(=O)[C@H](C(C)C)NC(=O)[C@H](CCCCN)NC1=O)[C@@H](C)O)C(C)C)C(C)C [Analogue 5a]
Concentration at which cytolysis (rapid increase in fluorescence followed by decrease to or below baseline) was observed (F11 cells): ≥ 10 µM | Insecticidal Activity (LD50) (Drosophila melanogaster [2]): 415.4 ± 29.6 ^a pmol/g | Effect on [Ca2+]i of DRG cells [3]: activated all DRG cells and caused dye leakage

β-diguetoxin-Dc1a
LD50 (insecticidal potency) (Drosophila melanogaster [1]): 59 pmol/g
